Measured values as given in US10344049B2, “Substituted steroids for the treatment of cancer” (AQUAVAN TECHNOLOGY CO., LTD., priority 2017, dated 2019).
Where two headings read alike, the source gives them in different places.

Key:
Format in all cases: cell-based
[1] = tested on: human colorectal cancer cells SW-480; assay: Cell viability test (Resazurin), SW480 cells; design: evaluation of ability to inhibit cell growth activity (IC50): scale not given here
Procedure: (§1) Cell viability was determined with Resazurin (at a final concentration of 25 μg/mL).

[2] = tested on: human breast cancer cells MDA-MB-231; assay: Cell viability test (Resazurin), MDA-MB-231 cells
Procedure: as §1

[3] = tested on: human breast cancer cells MDA-MB-468; assay: Cell viability test (Resazurin), MDA-MB-468 cells
Procedure: as §1

[4] = tested on: African green monkey kidney cells Vero; assay: Cell viability test (Resazurin), Vero cells; conditions: for evaluation of ability to inhibit cell growth activity (IC50): grade of the IC50 of Table 2
Procedure: as §1

[5] = tested on: human leukemia cells U937; assay: Cell viability test (Resazurin), U937 cells
Procedure: as §1

[6] = tested on: human Glioblastoma cells U87-MG; assay: Cell viability test (Resazurin), U87-MG cells; design: evaluation of ability to inhibit cell growth activity (IC50): scale not given here
Procedure: as §1

[7] = tested on: human lung cancer cells A549; assay: Cell viability test (Resazurin), A549 cells; design: evaluation of ability to inhibit cell growth activity (IC50): scale not given here
Procedure: as §1

[8] = tested on: human liver cancer cells Mahlavu; assay: Cell viability test (Resazurin), Mahlavu cells; conditions: for evaluation of ability to inhibit cell growth activity (IC50): grade of the IC50 of Table 2
Procedure: as §1

[9] = SW480 cells, 48 hours, 0.1% FCS, Resazurin, read-out: inhibitory concentrations of cell growth activity IC50
[10] = SW480 cells, grade of the IC50 of Table 2, read-out: evaluation of ability to inhibit cell growth activity (IC50)
[11] = MDA-MB-231 cells, 48 hours, 0.1% FCS, Resazurin, read-out: inhibitory concentrations of cell growth activity IC50
[12] = MDA-MB-231 cells, grade of the IC50 of Table 2, read-out: evaluation of ability to inhibit cell growth activity (IC50)
[13] = MDA-MB-468 cells, 48 hours, 0.1% FCS, Resazurin, read-out: inhibitory concentrations of cell growth activity IC50
[14] = MDA-MB-468 cells, grade of the IC50 of Table 2, read-out: evaluation of ability to inhibit cell growth activity (IC50)
[15] = 48 hours, 0.1% FCS, Resazurin, read-out: inhibitory concentrations of cell growth activity IC50
[16] = grade of the IC50 of Table 2, read-out: evaluation of ability to inhibit cell growth activity (IC50)
[17] = U937 cells, 48 hours, 0.1% FCS, Resazurin, read-out: inhibitory concentrations of cell growth activity IC50
[18] = U937 cells, grade of the IC50 of Table 2, read-out: evaluation of ability to inhibit cell growth activity (IC50)
[19] = A549 cells, 48 hours, 0.1% FCS, Resazurin, read-out: inhibitory concentrations of cell growth activity IC50
[20] = A549 cells, grade of the IC50 of Table 2, read-out: evaluation of ability to inhibit cell growth activity (IC50)
[21] = Homo sapiens, SW480, 48 h, SW480 cells, 48 hours, 0.1% FCS, Resazurin, read-out: inhibitory concentrations of cell growth activity IC50
[22] = Homo sapiens, SW480, SW480 cells, grade of the IC50 of Table 2, read-out: evaluation of ability to inhibit cell growth activity (IC50)
[23] = Homo sapiens, MDA-MB-231, 48 h, MDA-MB-231 cells, 48 hours, 0.1% FCS, Resazurin, read-out: inhibitory concentrations of cell growth activity IC50
[24] = Homo sapiens, MDA-MB-231, MDA-MB-231 cells, grade of the IC50 of Table 2, read-out: evaluation of ability to inhibit cell growth activity (IC50)
[25] = Homo sapiens, MDA-MB-468, 48 h, MDA-MB-468 cells, 48 hours, 0.1% FCS, Resazurin, read-out: inhibitory concentrations of cell growth activity IC50
[26] = Homo sapiens, MDA-MB-468, MDA-MB-468 cells, grade of the IC50 of Table 2, read-out: evaluation of ability to inhibit cell growth activity (IC50)
[27] = Chlorocebus sabaeus, Vero, 48 h, 0.1% FCS, Resazurin, read-out: inhibitory concentrations of cell growth activity IC50
[28] = Chlorocebus sabaeus, Vero, grade of the IC50 of Table 2, read-out: evaluation of ability to inhibit cell growth activity (IC50)
[29] = Homo sapiens, U-937, 48 h, U937 cells, 48 hours, 0.1% FCS, Resazurin, read-out: inhibitory concentrations of cell growth activity IC50
[30] = Homo sapiens, U-937, U937 cells, grade of the IC50 of Table 2, read-out: evaluation of ability to inhibit cell growth activity (IC50)
[31] = Homo sapiens, U-87 MG, 48 h, 0.1% FCS, Resazurin, read-out: inhibitory concentrations of cell growth activity IC50
[32] = Homo sapiens, U-87 MG, grade of the IC50 of Table 2, read-out: evaluation of ability to inhibit cell growth activity (IC50)
[33] = Homo sapiens, A549, 48 h, A549 cells, 48 hours, 0.1% FCS, Resazurin, read-out: inhibitory concentrations of cell growth activity IC50
[34] = Homo sapiens, A549, A549 cells, grade of the IC50 of Table 2, read-out: evaluation of ability to inhibit cell growth activity (IC50)
[35] = Homo sapiens, Mahlavu, 48 h, 0.1% FCS, Resazurin, read-out: inhibitory concentrations of cell growth activity IC50
[36] = Homo sapiens, Mahlavu, grade of the IC50 of Table 2, read-out: evaluation of ability to inhibit cell growth activity (IC50)
[37] = MDA-MB-468 cells, grade of the IC50 of Table 2
[38] = A549 cells, grade of the IC50 of Table 2
[39] = SW480 cells, grade of the IC50 of Table 2

## CC(C)=C[C@H](O)C[C@@H](C)[C@H]1CC[C@@]2(C)[C@@H]3[C@@H](O[C@@H]4O[C@H](CO)[C@@H](O)[C@H](O)[C@H]4O)C=C4[C@@H](CC[C@H](O)C4(C)C)[C@]3(C=O)CC[C@]12C [Compound 13]
[1]; [9]
  IC50: 67.2 µM
[1]; [10]
  IC50: 64 to 256 µM
[2]; [11]
  IC50: 59.4 µM
[2]; [12]
  IC50: 16 to 64 µM
[3]; [13]
  IC50: 58.3 µM
[3]; [14]
  IC50: 16 to 64 µM
[4]; [15]
  IC50: > 256 µM
[4]; [16]
  IC50: > 256 µM
[5]; [17]
  IC50: 32.5 µM
[5]; [18]
  IC50: 16 to 64 µM
[6]; [15]
  IC50: 103 µM
[6]; [16]
  IC50: 64 to 256 µM
[7]; [19]
  IC50: 198 µM
[7]; [20]
  IC50: 64 to 256 µM
[8]; [15]
  IC50: > 256 µM
[8]; [16]
  IC50: > 256 µM

## CC(=O)O[C@H]1C=C2[C@@H](CC[C@H](O)C2(C)C)[C@]2(C=O)CC[C@]3(C)[C@@H]([C@H](C)C/C=C/C(C)(C)O)CC[C@@]3(C)[C@H]12 [Compound 9]
[1]; [21]
  IC50: 31.8 µM
[1]; [22]
  IC50: 16 to 64 µM
[2]; [23]
  IC50: 18.3 µM
[2]; [24]
  IC50: 16 to 64 µM
[3]; [25]
  IC50: 26.8 µM
[3]; [26]
  IC50: 16 to 64 µM
[4]; [27]
  IC50: 25.9 µM
[4]; [28]
  IC50: 16 to 64 µM
[5]; [29]
  IC50: 11.2 µM
[5]; [30]
  IC50: 8 to 16 µM
[5]; U937 cells, grade of the IC50 of Table 2
  evaluation of ability to inhibit cell growth activity (IC50): ◯
[6]; [31]
  IC50: 15.6 µM
[6]; [32]
  IC50: 8 to 16 µM
[6]; grade of the IC50 of Table 2
  evaluation of ability to inhibit cell growth activity (IC50): ◯
[7]; [33]
  IC50: 24.4 µM
[7]; [34]
  IC50: 16 to 64 µM
[8]; [35]
  IC50: 5.07 µM
[8]; [36]
  IC50: < 8 µM

## CO[C@H]1O[C@]23C=C[C@@H]4[C@@]1(CC[C@]1(C)[C@@H]([C@H](C)C[C@H](C=C(C)C)OC)CC[C@@]41C)[C@@H]2CC[C@H](O)C3(C)C [Compound 18]
[1]; [9]
  IC50: > 256 µM
[1]; [10]
  IC50: > 256 µM
[2]; [11]
  IC50: > 256 µM
[2]; [12]
  IC50: > 256 µM
[3]; [13]
  IC50: > 256 µM
[3]; [14]
  IC50: > 256 µM
[4]; [15]
  IC50: > 256 µM
[4]; [16]
  IC50: > 256 µM
[5]; [17]
  IC50: > 256 µM
[5]; [18]
  IC50: > 256 µM
[6]; [15]
  IC50: > 256 µM
[6]; [16]
  IC50: > 256 µM
[7]; [19]
  IC50: > 256 µM
[7]; [20]
  IC50: > 256 µM
[8]; [15]
  IC50: > 256 µM
[8]; [16]
  IC50: > 256 µM

## CC(=O)O[C@H]1C=C2[C@@H](CC[C@H](OC(C)=O)C2(C)C)[C@]2(C=O)CC[C@]3(C)[C@@H]([C@H](C)C[C@H](C=C(C)C)OC(C)=O)CC[C@@]3(C)[C@H]12 [Compound 3]
[1]; [21]
  IC50: 18.2 µM
[1]; [22]
  IC50: 16 to 64 µM
[2]; [23]
  IC50: 5.2 µM
[2]; [24]
  IC50: < 8 µM
[3]; [25]
  IC50: 10.4 µM
[3]; [26]
  IC50: 8 to 16 µM
[3]; [37]
  evaluation of ability to inhibit cell growth activity (IC50): ◯
[4]; [27]
  IC50: > 256 µM
[4]; [28]
  IC50: > 256 µM
[5]; [29]
  IC50: 3.45 µM
[5]; [30]
  IC50: < 8 µM
[6]; [31]
  IC50: 6.82 µM
[6]; [32]
  IC50: < 8 µM
[7]; [38]
  evaluation of ability to inhibit cell growth activity (IC50): ◯
[7]; [33]
  IC50: 12.2 µM
[7]; [34]
  IC50: 8 to 16 µM
[8]; [35]
  IC50: 23 µM
[8]; [36]
  IC50: 16 to 64 µM

## CO[C@H]1C=C2[C@@H](CC[C@H](O)C2(C)C)[C@]2(C=O)CC[C@]3(C)[C@@H]([C@H](C)C/C=C/C(C)(C)OC)CC[C@@]3(C)[C@H]12 [Compound 23]
[1]; [21]
  IC50: 7.56 µM
[1]; [22]
  IC50: < 8 µM
[2]; [23]
  IC50: 7.91 µM
[2]; [24]
  IC50: < 8 µM
[3]; [25]
  IC50: 7.55 µM
[3]; [26]
  IC50: < 8 µM
[4]; [27]
  IC50: 15.9 µM
[4]
  evaluation of ability to inhibit cell growth activity (IC50): ◯
[5]; [29]
  IC50: 5.75 µM
[5]; [30]
  IC50: < 8 µM
[6]; [31]
  IC50: 7.65 µM
[6]; [32]
  IC50: < 8 µM
[7]; [38]
  evaluation of ability to inhibit cell growth activity (IC50): ◯
[7]; [33]
  IC50: 15.3 µM
[7]; [34]
  IC50: 8 to 16 µM
[8]; [35]
  IC50: 15.4 µM
[8]; [36]
  IC50: 8 to 16 µM
[8]
  evaluation of ability to inhibit cell growth activity (IC50): ◯

## CC(C)=C[C@H](O)C[C@@H](C)[C@H]1CC[C@@]2(C)[C@@H]3[C@@H](O)C=C4[C@@H](CC[C@H](O)C4(C)C)[C@]3(C=O)CC[C@]12C [Compound 2]
[1]; [21]
  IC50: 13.1 µM
[1]; [22]
  IC50: 8 to 16 µM
[1]; [39]
  evaluation of ability to inhibit cell growth activity (IC50): ◯
[2]; [23]
  IC50: 4.44 µM
[2]; [24]
  IC50: < 8 µM
[3]; [25]
  IC50: 7.25 µM
[3]; [26]
  IC50: < 8 µM
[4]; [27]
  IC50: 12.8 µM
[4]
  evaluation of ability to inhibit cell growth activity (IC50): ◯
[5]; [29]
  IC50: 0.05 µM
[5]; [30]
  IC50: < 8 µM
[6]; [31]
  IC50: 7.52 µM
[6]; [32]
  IC50: < 8 µM
[7]; [33]
  IC50: 4.16 µM
[7]; [34]
  IC50: < 8 µM
[8]; [35]
  IC50: 11.3 µM
[8]; [36]
  IC50: 8 to 16 µM
[8]
  evaluation of ability to inhibit cell growth activity (IC50): ◯

## CC(=O)O[C@H]1C=C2[C@@H](CC[C@H](O)C2(C)C)[C@]2(C=O)CC[C@]3(C)[C@@H]([C@H](C)C[C@@H](O)C=C(C)C)CC[C@@]3(C)[C@H]12 [Compound 8]
[1]; [9]
  IC50: 13.8 µM
[1]; [39]
  evaluation of ability to inhibit cell growth activity (IC50): ◯
[2]; [11]
  IC50: 5.19 µM
[2]; [12]
  IC50: < 8 µM
[3]; [13]
  IC50: 9.81 µM
[3]; [37]
  evaluation of ability to inhibit cell growth activity (IC50): ◯
[4]; [15]
  IC50: 24.2 µM
[4]; [16]
  IC50: 16 to 64 µM
[5]; [17]
  IC50: 5.39 µM
[5]; [18]
  IC50: < 8 µM
[6]; [15]
  IC50: 7.54 µM
[6]; [16]
  IC50: < 8 µM
[7]; [19]
  IC50: 4.86 µM
[7]; [20]
  IC50: < 8 µM
[8]; [15]
  IC50: 11.5 µM
[8]
  evaluation of ability to inhibit cell growth activity (IC50): ◯
